This passage reports IC50 results from patent US20200087248A1, “Fluoroallylamine Derivative And Use Thereof” (SICHUAN KELUN-BIOTECH BIOPHARMACEUTICAL CO., LTD., priority 2017, published 2020).

Where a name gives a salt, the structure may show the parent alone.

In data set [1] the target is T1, MAO-A (Homo sapiens, UniProt P21397).
T1 construct: purchased Sigma Aldrich
T1 sequence (P21397 1-527): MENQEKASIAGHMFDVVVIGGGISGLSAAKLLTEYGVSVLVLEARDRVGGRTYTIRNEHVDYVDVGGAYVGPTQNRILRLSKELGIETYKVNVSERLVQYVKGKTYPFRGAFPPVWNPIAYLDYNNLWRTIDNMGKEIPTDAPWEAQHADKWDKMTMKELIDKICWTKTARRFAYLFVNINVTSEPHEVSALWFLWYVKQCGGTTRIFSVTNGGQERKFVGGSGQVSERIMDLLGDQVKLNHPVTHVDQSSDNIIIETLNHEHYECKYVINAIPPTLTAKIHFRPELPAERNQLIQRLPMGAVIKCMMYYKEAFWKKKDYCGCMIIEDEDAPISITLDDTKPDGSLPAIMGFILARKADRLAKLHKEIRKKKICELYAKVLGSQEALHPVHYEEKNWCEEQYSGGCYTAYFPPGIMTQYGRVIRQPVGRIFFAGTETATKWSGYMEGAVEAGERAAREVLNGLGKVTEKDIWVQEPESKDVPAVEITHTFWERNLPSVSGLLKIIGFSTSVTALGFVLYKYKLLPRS
The data set can be described thus: Inhibition of the enzymatic activity of MAO-A. It is filed as biochemical. The following applies: range of IC50 from inhibition rates at 100 μM and 10 μM; read-out: IC50, inhibition against the enzymatic activity of MAO-A. Here is the method: Inhibition Experiment Against the Enzymatic Activity of MAO-A (Monoamine Oxidase Type A)
(§1) 1. Test kit: Amplex® Red Monoamine Oxidase Assay, Manufacturer: ThermoFisher
2. Reaction Buffer Solution: 50 mM PBS, pH 7.4
Protein: MAO-A, manufacturer: Sigma Aldrich
According to the method as described in the specification of the kit, MAO-A protein (15 μg/ml) and different concentrations of the test compound were pre-incubated at room temperature for 30 minutes, and then 200 μM p-tyramine hydrochloride, 1 U/mL HRP and 200 µM Amplex Red reagent were added to start the reaction. In kinetic mode, fluorescence signals were measured at Ex/Em=540/590 nm. The inhibition rate of each concentration group was calculated, wherein the ratio of fluorescence signal to reaction time ratio is the reaction rate, the vehicle group (DMSO) is the negative control, and the reaction buffer solution group (without enzymes and the compounds) is the blank control.
Percent inhibition rate (%)=(1-(reaction rate of each compound concentration group−reaction rate of the blank group)/(reaction rate of vehicle group−reaction rate of the blank group))*100.
According to the above method, the inhibition of the compound against the enzymatic activity of MAO-A was measured, and the range of IC50 was obtained according to the inhibition rates at 100 μM and 10 μM.

The target in data set [2] is T2, MAO-B (Homo sapiens, UniProt P27338).
T2 construct: purchased Sigma Aldrich
T2 sequence (P27338 1-520): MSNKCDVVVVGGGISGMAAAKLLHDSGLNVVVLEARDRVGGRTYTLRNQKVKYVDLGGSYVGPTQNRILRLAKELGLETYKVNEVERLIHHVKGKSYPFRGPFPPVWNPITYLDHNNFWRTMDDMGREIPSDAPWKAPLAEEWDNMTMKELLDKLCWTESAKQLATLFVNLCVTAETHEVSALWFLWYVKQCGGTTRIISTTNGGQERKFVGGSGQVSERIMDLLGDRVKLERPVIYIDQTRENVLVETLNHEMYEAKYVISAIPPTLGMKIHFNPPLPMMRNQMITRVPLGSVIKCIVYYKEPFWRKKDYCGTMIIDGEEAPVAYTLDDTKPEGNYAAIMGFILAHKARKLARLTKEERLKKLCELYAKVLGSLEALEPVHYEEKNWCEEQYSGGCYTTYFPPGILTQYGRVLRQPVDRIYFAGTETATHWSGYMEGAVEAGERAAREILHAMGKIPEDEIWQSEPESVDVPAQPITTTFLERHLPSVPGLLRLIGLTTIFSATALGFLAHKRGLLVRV
The data set can be described thus: Inhibition of the enzymatic activity of MAO-B. It is filed as biochemical. The settings on record: range of IC50 from inhibition rates at 10 μM, 1 μM and 0.1 μM; read-out: IC50, inhibition against the enzymatic activity of MAO-B. The procedure:
Inhibition Experiment Against the Enzymatic Activity of MAO-B (Monoamine Oxidase Type B)
as §1
Protein: MAO-B, manufacturer: Sigma Aldrich
According to the method as described in the specification of the test kit, MAO-B protein (5 μg/ml) and different concentrations of the test compound were pre-incubated at room temperature for 10 minutes, and then 150 μM benzylamine hydrochloride, 1 U/mL HRP and 200 μM Amplex Red reagent were added to start the reaction. The relative inhibition rate of each concentration group were calculated according to the experimental method of MAO-A.
According to the above method, the inhibition of the compound against the activity of the MAO-B was measured, and the range of IC50 was obtained according to the inhibition rates at 10 μM, 1 μM and 0.1 μM.

The target of data set [3] is T3, hERG (Homo sapiens, UniProt Q12809).
T3 construct: purchased ThermoFisher; host or cells: hERG cell membrane supplied with the kit
T3 sequence (Q12809 whole entry): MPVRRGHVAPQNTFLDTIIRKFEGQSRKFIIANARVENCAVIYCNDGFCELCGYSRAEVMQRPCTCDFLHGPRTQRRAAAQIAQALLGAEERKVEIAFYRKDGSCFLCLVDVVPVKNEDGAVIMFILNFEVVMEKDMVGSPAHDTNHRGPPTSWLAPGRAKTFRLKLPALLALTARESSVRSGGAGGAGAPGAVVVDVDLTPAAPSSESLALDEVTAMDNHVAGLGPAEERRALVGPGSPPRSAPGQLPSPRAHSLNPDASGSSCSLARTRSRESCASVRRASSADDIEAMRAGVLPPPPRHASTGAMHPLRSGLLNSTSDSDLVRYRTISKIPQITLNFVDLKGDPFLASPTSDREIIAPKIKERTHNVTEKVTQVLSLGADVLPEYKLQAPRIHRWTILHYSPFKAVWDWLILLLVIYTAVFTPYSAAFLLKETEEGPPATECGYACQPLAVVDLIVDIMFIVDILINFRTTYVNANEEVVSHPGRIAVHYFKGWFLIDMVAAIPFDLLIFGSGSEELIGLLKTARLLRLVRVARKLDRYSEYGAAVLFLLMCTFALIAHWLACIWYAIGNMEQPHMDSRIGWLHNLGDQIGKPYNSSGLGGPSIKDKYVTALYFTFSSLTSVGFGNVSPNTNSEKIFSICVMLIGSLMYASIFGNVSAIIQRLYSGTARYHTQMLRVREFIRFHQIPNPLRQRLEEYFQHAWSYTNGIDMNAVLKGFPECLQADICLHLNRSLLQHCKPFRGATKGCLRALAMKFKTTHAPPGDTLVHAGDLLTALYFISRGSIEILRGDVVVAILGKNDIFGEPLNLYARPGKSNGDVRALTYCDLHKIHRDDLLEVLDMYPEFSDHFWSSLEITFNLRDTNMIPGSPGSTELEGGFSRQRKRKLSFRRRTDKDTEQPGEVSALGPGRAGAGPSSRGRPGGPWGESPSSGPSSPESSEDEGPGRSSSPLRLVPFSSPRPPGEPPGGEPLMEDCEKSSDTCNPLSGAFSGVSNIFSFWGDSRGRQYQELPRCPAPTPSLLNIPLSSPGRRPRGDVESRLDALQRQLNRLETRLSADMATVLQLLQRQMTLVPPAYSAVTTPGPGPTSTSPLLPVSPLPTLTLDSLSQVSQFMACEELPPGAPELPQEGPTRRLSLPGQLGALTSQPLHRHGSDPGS
Kind of data set: hERG fluorescence polarization inhibition experiment. The settings on record: hERG cell membrane, 25° C. 2 hours, read-out: hERG (IC50 range, competitive binding vs tracer). The method in brief: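 Fluorescence-polarization tracer displacement on hERG cell membranes; compound and high-affinity tracer incubated 2 h at 25 °C. % inhibition from mP relative to buffer (0%) and 30 μM E4031 (100%) over several concentrations, giving an IC50 range.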

For the compound `NC/C(=C/F)COc1ccc2c(c1)CCNC2=O` [TM26-Z, (Z)-6-((2-aminomethyl-3-fluoroallyl)oxy)-3,4-dihydroisoquinolin-1(2H)-one trifluoroacetate], the results for the IC50 in data set [1], in data set [2] and in data set [3] were > 100 µM, > 1 µM and > 10 µM, respectively.
For the compound “(E)-6-((2-(methylamino)-3-fluoroallyl)oxy)-3,3-dimethyl-3,4-dihydro-isoquinolin-1(2H)-one trifluoroacetate [TM38-E]”, the IC50 was > 100 µM in data set [1], > 10 µM in data set [2] and > 10 µM in data set [3].
Regarding `NC/C(=C\F)COc1ccc2c(c1)C(=O)CC2` [TM7-E, (E)-6-((2-aminomethyl-3-fluoroallyl)oxy)-2,3-dihydro-1-indenone trifluoroacetate], the IC50 in data set [1] was > 100 µM; in data set [2] it was > 10 µM; in data set [3], > 10 µM.
For the compound `NC/C(=C\F)COc1ccc(-c2ncccn2)cc1` [TM39-E, (E)-2-(4-(2-pyrimidyl)phenoxymethyl)-3-fluoroallylamine trifluoroacetate], the IC50 in data set [1] and in data set [3] was > 10 µM throughout.
For `NC/C(=C\F)COc1ccc(C(=O)NC2CCOCC2)cc1` [TM76-E, (E)-N-(tetrahydro-2H-pyran-4-yl)-4-((2-aminomethyl-3-fluoroallyl)oxy)-benzamide trifluoroacetate], the IC50 was > 100 µM in data set [1], > 1 µM in data set [2] and > 10 µM in data set [3].
Turning to `NC/C(=C/F)COc1ccc(C(=O)NCc2ccccn2)cc1` [TM112-Z, (Z)-4-((2-aminomethyl-3-fluoroallyl)oxy)-N-(pyridin-2-ylmethyl)benzamide trifluoroacetate], the IC50 in data set [1] is > 100 µM; in data set [2] it was > 0.1 µM; in data set [3] it was > 10 µM.
As for “(E)-6-((2-(methylamino)-3-fluoroallyl)oxy)-2-methyl-3,4-dihydroisoquinolin-1(2H)-one trifluoroacetate [TM66-E]”, the IC50 in data set [1], in data set [2] and in data set [3] was > 10 µM in each case.
For the compound `NC/C(=C\F)COc1ccc(C(=O)Nc2ccccc2)cc1` [TM1-E, (E)-N-phenyl-4-((2-aminomethyl-3-fluoroallyl)oxy)-benzamide trifluoroacetate], the IC50 in data set [3] was > 10 µM.

One may read the IC50 as the midpoint of a concentration-inhibition curve.
